Results reported in patent publication US10308631B2, “Selective anti-cancer compounds” (NATIONAL UNIVERSITY OF SINGAPORE, priority 2015, dated 2019).

Experiments:
[1] = tested on: normal cell lines (panel of five); test: MTT growth inhibition, mean over normal cell line panel; assay type: cell-based; conditions: Homo sapiens, 72 h
Method: FIG. 7 is a graphical representation showing that Compound 1 (a131) induces selective cell growth inhibitory effects in a broad spectrum of human cancer cells. A panel of cancer and normal cell lines were treated with Compound 1 (a131) for 72 h and a mean G150 value (the concentration required to achieve 50% growth inhibition) was determined. A Student's t-test indicated a statistically significant difference at p<0.05 (p=0.017) between normal cells and cancer cells treated with Compound 1 (a131). […]
The MTT assay was performed by adding thiazolyl blue tetrazolium bromide (MTT reagent, Invitrogen) at a concentration of 0.5 mg/mL to each cell culture and the resulting mixture incubated for 4 h at 37° C. […] The absorbance of each well at 540 nm and 660 nm was measured using a microplate reader (Benchmark plus, BIO-RAD). The optical density (OD) values were calculated by subtracting the absorbance at 660 nm from the absorbance at 540 nm. […]

[2] = tested on: HeLa cells; test: Soft agar colony formation assay (anchorage-independent growth); assay type: cell-based, human; conditions: sub-micromolar concentrations, seven days
Method: FIG. 8 is a histogram showing that Compound 1 (a131) potently suppresses anchorage-independent growth of cancer cells. HeLa cells were suspended in 2 mL of soft agar at the final concentration of 0.4%, and were then placed on the top of 2 mL layer of 1% agar in 6-well plates, in triplicate. Subsequently, Compound 1 (a131) was added to the plates at concentrations of 0, 0.15, 0.3, 0.6, 1.25. 2.5 and 5 μM. Seven (7) days after the addition of Compound 1 (a131) to soft agar cultures, the number of colonies per plate were counted in an unbiased manner using automated MATLAB software. The average number of colonies from triplicates was plotted with standard deviations.
Soft agar colony formation assays are known to better mimic the features of in vivo tumours growing in three dimensions than cancer cell lines growing in an in vitro tissue culture. Therefore, the anti-proliferative effects of Compound 1 on cancer cells growing anchorage-independently in soft agar were studied too.
HeLa cells as cultured in Biology Example 1 (1×10^4 cells/well) were suspended in 2 mL of soft agar at a final concentration of 0.4%. […] Seven days after the addition of Compound 1, the number of colonies per plate was counted in an unbiased manner using MATLAB software.

[3] = tested on: non-transformed normal BJ cells; test: Reversibility of cell cycle arrest after wash-out (cell counting); assay type: cell-based, human; conditions: 5 μM for 2, 3, 6 or 11 days, then wash-out
Source text: Non-transformed normal BJ cells were synchronized in G1 phase of the cell cycle by culturing in serum-starved conditions (0.1% FBS) for 2 days. Subsequently, cells were synchronously released in fresh media with 10% FBS and further treated with Compound 1 (a131) for 2, 3, 6 or 11 days. After treatment for the required amount of time, Compound 1 (a131) was removed by washing cells twice with fresh media, and culturing of the washed cells was continued in fresh media for up to 11 days. Cells were harvested and total numbers of cells, counted using automated Sceptor cell counter, were plotted with standard deviation (triplicates).
As shown in Biology Examples 5 and 7, Compound 1 and its derivatives, which inhibit both lysosome function and mitosis, induce cell death only in transformed BJ cells, while inducing cell cycle arrest in isogenic non-transformed BJ cells. However, it was not fully clear if the cell cycle arrest was permanent or reversible. Therefore, to evaluate whether the effect was permanent or reversible, non-transformed normal BJ cells were synchronized in the G1 phase of the cell cycle by culturing them in DMEM media with 0.1% FBS for 2 days. […] At various time-points, the adherent cells were harvested with trypsin (Invitrogen) and the total number of cells was counted using automated Sceptor cell counter (Millipore).

N#C/C(=C\c1cccc2cnccc12)c1c[nH]c2ccccc12 [Compound 1, (Z)-2-(1H-indol-3-yl)-3-(isoquinolin-5-yl)acrylonitrile]
GI50 [1]: 6.5 µM | reduction of HeLa cell colonies grown in soft agar [2]: greater than 50% | recovery of proliferation after removal of compound [3]: removal of Compound 1 from the media is sufficient to enable these cells to recover from cell cycle arrest
